From patent US4962200A, “Nitrogen-containing compound” (Mitsui Petrochemical Industries, Ltd., priority 1987, dated 1990)

Each compound was assayed on formation of peroxide lipids (rat brain homogenate) (assay: activity of inhibiting formation of peroxide lipids (TBA assay, rat brain homogenate supernatant)). Conditions: final concentration 10^-4 M, pH 7.4, 37° C., 30 minutes, malondialdehyde by TBA assay vs control, 100 µM.
Type: biochemical, rat (Wistar)
Procedure: With respect to the compounds of the present invention, the activity of inhibiting formation of peroxide lipids was tested according to the following procedures.
Male rats of the Wistar system having a body weight of 200 to 250 g were used. The rat brain was extracted by beheading and homogenized by 50 mM phosphate buffer solution (pH 7.4)(PBS), and centrifugal separation was conducted for 15 minutes under 1000 G. The supernatant was frozen at -30° C. and stored, and when the test was carried out, the frozen supernatant was thawed in running water and diluted with PBS so that the volume was trebled, whereby a living body sample was prepared.
Two samples were formed by adding 10 μl of a solution of the test compound (the final concentration was 10^-4 M) to 990 μl of the living body sample. One sample was incubated at 37° C. for 30 minutes and 0.2 ml of a 35% solution of perchloric acid was added to stop the reaction. The other sample was not incubated but the solution of perchloric acid was immediately added to stop the reaction. Both the reaction liquids were subjected to centrifugal separation at 3000 rpm for 15 minutes. With respect to each sample, by using 0.5 ml of the supernatant, the amount of the peroxide lipid was determined according to the TBA assay [Okawa et al., Anal. Biochem., 95. 351 (1979)], and the difference between both the measured values was determined as the amount of malondialdehyde (MDS)(the unit: nmole/mg protein). The peroxide lipid inhibition ratio was calculated from this MDA amount (A) and the control value (B) (the MDA amount obtained when the test compound was not added) according to the following formula: [formula]
In the case of `c1ccc(CN2CCCc3ccccc32)nc1` [Compound 14], the “Inhibition Ratio (%) (peroxide lipid inhibition ratio)” value (“Inhibition Ratio (%)” below) is reported as 100.0%. `Cn1cncc1CN1CCCc2ccccc21` [Compound 1] was tested, and the “Inhibition Ratio (%)” value was 99.0%. `CCOC(=O)c1cncnc1CN1CCCc2ccccc21` [Compound 17] was tested, and the “Inhibition Ratio (%)” value was 100.0%. With `Cc1ncoc1CN1CCCc2ccccc21` [Compound 12] the “Inhibition Ratio (%)” value was 97.8%. For `O=C1C=C(OCCN2CCCc3ccccc32)C(=O)c2ccccc21` [Compound 18], the “Inhibition Ratio (%)” value was 97.9%. With `c1coc(CCCN2CCCc3ccccc32)c1` [Compound 13] the “Inhibition Ratio (%)” value was 90.5%. In the case of `c1coc(CN2CCSc3ccccc32)c1` [Compound 19, 4-(2-furyl)methyl-3,4-dihydro-2H-1,4-benzothiazine], the “Inhibition Ratio (%)” value is reported as 80.9%. `c1csc(CN2CCCc3ccccc32)c1` [Compound 5] was tested, and the “Inhibition Ratio (%)” value was 93.6%. `Clc1ccc2c(c1)CCCN2Cc1ccco1` [Compound 21] was tested, and the “Inhibition Ratio (%)” value was 87.2%. In the case of `Cc1nc(CN2CCCc3ccccc32)cs1` [Compound 3], the “Inhibition Ratio (%)” value is reported as 88.7%. `c1coc(CN2CCOc3ccccc32)c1` [Compound 11, 4-(2-furyl)methyl-3,4-dihydro-2H-benzooxazine] was tested, and the “Inhibition Ratio (%)” value was 56.0%. With `c1coc(CN2CCc3ccccc32)c1` [Compound 10] the “Inhibition Ratio (%)” value was 87.0%. With `Cc1nc(CN2CCc3ccccc32)cs1` [Compound 4] the “Inhibition Ratio (%)” value was 84.6%. In the case of `c1csc(CN2CCc3ccccc32)c1` [Compound 6], the “Inhibition Ratio (%)” value is reported as 95.4%. With `CCOC(=O)c1cnc(-c2ccccc2)nc1CN1CCCc2ccccc21` [Compound 16] the “Inhibition Ratio (%)” value was 100.0%. For `CCOC(=O)c1cnc(C)nc1CN1CCCc2ccccc21` [Compound 15], the “Inhibition Ratio (%)” value was 100.0%. In the case of `CN(C)C(=O)n1cnc(CN2c3ccccc3CCc3ccccc32)c1` [Compound 9, 1-(N,N-dimethylcarbamoyl)-4-(10,11-dihydro-5H-dibenzo[b,f]azepin-5-ylmethyl)imidazole], the “Inhibition Ratio (%)” value is reported as 94.0%. For `Cc1ccc2c(c1)CCCN2Cc1ccco1` [Compound 20], the “Inhibition Ratio (%)” value was 85.1%.
